Reference: US20260022098A1, “BULLEYACONITINE A DERIVATIVE WITH ANALGESIC ACTIVITY, AND PREPARATION METHOD AND APPLICATION THEREOF” (priority 2023, published 2026)

How the values were obtained:
Kunming mice [1] = experiment: Acute toxicity / median lethal dose (LD50) determination, subcutaneous injection; type: in vivo; parameters: key to Acute toxicity: if death occurred, (+) represented as positive; if no death occurred, (−) represented as negative; settings: mice administered 20 mg/kg subcutaneously, presence of death within 24 h
Procedure: (§1) The experimental animals were Kunming mice (male:female=1:1), weighed 22+2 g, which were provided by Chengdu dossy experimental animals Co., ltd., China. The mice were kept in the animal room of the School of Life Science and Engineering, Southwest Jiaotong University, where the animal room was set at a temperature of 23±2° C., a humidity of […] and a photoperiod of 16:8 h (L:D). Before the experiment, the mice were freely fed for 2-3 days with water and feed to adapt to the new environment. Then, the mice were treated by water and food fasting for 12 h. 10 animals were allocated to each group to ensure that there are at least 6 sets of valid data in each group. The animal experiments were carried out in strict accordance with the national regulations on the management of experimental animals.
(§2) The compounds prepared in the examples provided herein (test sample set) and bulleyaconitine A (positive control set) were all dissolved with 0.1 mol/L HCl according to a molar ratio of 1:1, and then diluted with physiological saline to a concentration to be determined. Blank control was physiological saline containing 0.1 mol/L HCl. The animals in the control groups were subjected to the same treatment as those in experimental groups except that samples to be test were replaced with physiological saline.
(2) Median Lethal Dose (LD50) Determination
The sample to be tested was dissolved with 0.1 mol/L HCl according to the amount of the substance ratio of 1:1, and diluted with physiological saline according to the required concentration. 10 mice in each group were randomly selected, half of which were male and half of which were female, and were placed in independent cages. Each mouse was injected subcutaneously with different sample solutions to be tested according to a dose of 0.1 mL/10 g body weight. In the preliminary toxicity experiment, the measured concentration was 20 mg/kg, and then based on the survival rate of the experimental animals in the preliminary experiment, the sample to be tested was set to at least 5 groups with different concentration dose according to the proportional series. The survival rate of mice within 24 h was recorded. The obtained dose-survival rate data was input into the SPSS software (version 17.2), and the LD50 of the sample was calculated according to the Probit regression method.

Kunming mice [2] = experiment: Analgesic activity by acetic acid-induced writhing method (writhing inhibition rate, ED50); type: in vivo; settings: Mus musculus, sc, read-out: Analgesia rate (%) ± SEM
Procedure: as §1, §2
(1) Determination of Analgesic Activity Through an Acetic Acid-Induced Writhing Method
10 mice were randomly selected, male:female=1:1, were placed in independent cages. Each mouse was injected subcutaneously with the sample solution mentioned above at a dose of 0.1 mL/10 g body weight. After 15 min, a 0.7% acetic acid solution was intraperitoneally injected. A number of writhing reactions in each mouse within 15 minutes was recorded. The group that the mice were injected with physiological saline subcutaneously was the blank group; the group that the mice were injected with the sample to be tested was the experimental group; and the group that the mice were injected with bulleyaconitine A was the positive group. The analgesic activity was represented by a percentage of the reduced number of writhing compared to the blank group (writhing inhibition rate), which were specifically as follows: writhing inhibition rate (analgesic activity)=(average number of writhing times in the blank group-average number of writhing times in the experimental group)/average number of writhing times in the blank group×100%.
Median Effective Dose (ED50) Determination
The sample to be tested was dissolved with 0.1 mol/L HCl according to the amount of the substance ratio of 1:1, and diluted with physiological saline according to the proportional series to obtain at least 5 groups with different dose concentrations. The writhing inhibition rate of each dose group was tested according to the acetic acid-induced writhing method mentioned above. The obtained dose-writhing inhibition data was entered into the statistical product and service solutions (SPSS) software (version 17.2), and the ED50 of the sample to be tested was calculated through the Probit regression method.

| Compound | Acute toxicity (Kunming mice [1]) | inhibition in vivo at 0.05 mg/kg (Kunming mice [2]) [%] |
| --- | --- | --- |
| CCOc1ccc(C(=O)O[C@]23CC4C([C@H]2OC(=O)c2ccc(OC)cc2)[C@](OC(C)=O)(C[C@@H]3OC)C2[C@H](OC)C3[C@@]5(COC)CC[C@H](OC)[C@@]43[C@@H]2N(CC)C5)cc1 (some centres unmarked) [Compound 37] | − | 21.2 ± 1.7 |
| CCN1C[C@]2(COC)CC[C@H](OC)[C@@]34C5C[C@]6(OC(=O)c7ccc([N+](=O)[O-])cc7)[C@@H](OC)C[C@@](OC(C)=O)(C5[C@H]6OC(=O)c5ccc(OC)cc5)C([C@H](OC)C23)[C@@H]14 (some centres unmarked) [Compound 40] | − | 31.9 ± 1.8 |
| CCO[C@]12C[C@H](OC)[C@@]3(OC(C)=O)CC(C1[C@H]3OC(C)=O)[C@]13C4[C@@H](OC)C2[C@H]1N(CC)C[C@]4(COC)CC[C@@H]3OC (some centres unmarked) [Compound 41] | − | 18.5 ± 2.1 |
| CCO[C@]12C[C@H](OC)[C@@]3(OC(C)=O)CC(C1[C@H]3OC(=O)c1ccc(OC)cc1)[C@]13C4[C@@H](OC)C2[C@H]1N(CC)C[C@]4(COC)CC[C@@H]3OC (some centres unmarked) [Compound 42] | − | 23 ± 1.7 |
| CCN1C[C@]2(COC)CC[C@H](OC)[C@@]34C5C[C@]6(OC(C)=O)[C@@H](OC)C[C@@](OC(C)=O)(C5[C@H]6OC(=O)c5ccc(OC)cc5)C([C@H](OC)C23)[C@@H]14 (some centres unmarked) [Compound 43] | − | 4.92 ± 1.5 |
| CCN1C[C@]2(COC)CC[C@H](OC)[C@@]34C5C[C@]6(OC(C)=O)[C@@H](OC)C[C@@](OC)(C5[C@H]6OC(C)=O)C([C@H](OC)C23)[C@@H]14 (some centres unmarked) [Compound 44] | − | 5.82 ± 3.4 |
| CCN1C[C@]2(COC)CC[C@H](OC)[C@@]34C5C[C@]6(OC(C)=O)[C@@H](OC)C[C@@](OC)(C5[C@H]6OC(=O)c5ccc(OC)cc5)C([C@H](OC)C23)[C@@H]14 (some centres unmarked) [Compound 45] | − | 21.6 ± 1.3 |
| CCO[C@]12C[C@H](OC)[C@@]3(OC(=O)c4ccc(C(F)(F)F)cc4)CC(C1[C@H]3OC(=O)c1ccc(C(F)(F)F)cc1)[C@]13C4[C@@H](OC)C2[C@H]1N(CC)C[C@]4(COC)CC[C@@H]3OC (some centres unmarked) [Compound 46] | − | 16.7 ± 2.6 |
| CCO[C@]12C[C@H](OC)[C@@]3(OC(=O)c4ccc(C(F)(F)F)cc4)CC(C1[C@H]3OC(=O)c1ccc(OC)cc1)[C@]13C4[C@@H](OC)C2[C@H]1N(CC)C[C@]4(COC)CC[C@@H]3OC (some centres unmarked) [Compound 47] | − | 33.8 ± 2.2 |
| CCN1C[C@]2(COC)CC[C@H](OC)[C@@]34C5C[C@]6(OC(=O)c7ccc(C(F)(F)F)cc7)[C@@H](OC)C[C@@](OC(C)=O)(C5[C@H]6OC(=O)c5ccc(OC)cc5)C([C@H](OC)C23)[C@@H]14 (some centres unmarked) [Compound 48] | − | 17.5 ± 3 |
| CCO[C@]12C[C@H](OC)[C@@]3(OC(=O)c4ccncc4)CC(C1[C@H]3OC(=O)c1ccncc1)[C@]13C4[C@@H](OC)C2[C@H]1N(CC)C[C@]4(COC)CC[C@@H]3OC (some centres unmarked) [Compound 49] | − | 13.7 ± 1 |
| CCO[C@]12C[C@H](OC)[C@@]3(OC(=O)c4ccncc4)CC(C1[C@H]3OC(=O)c1ccc(OC)cc1)[C@]13C4[C@@H](OC)C2[C@H]1N(CC)C[C@]4(COC)CC[C@@H]3OC (some centres unmarked) [Compound 50] | − | 33.2 ± 1.4 |
| CCN1C[C@]2(COC)CC[C@H](OC)[C@@]34C5C[C@]6(OC(=O)c7ccncc7)[C@@H](OC)C[C@@](OC(C)=O)(C5[C@H]6OC(=O)c5ccc(OC)cc5)C([C@H](OC)C23)[C@@H]14 (some centres unmarked) [Compound 51] | − | 32.6 ± 1.7 |
| CCO[C@]12C[C@H](OC)[C@@]3(OC(=O)c4ccccc4)CC(C1[C@H]3OC(=O)c1ccc(OC)cc1)[C@]13C4[C@@H](OC)C2[C@H]1N(CC)C[C@]4(COC)CC[C@@H]3OC (some centres unmarked) [Compound 53] | − | 0 |
| CCN1C[C@]2(COC)CC[C@H](OC)[C@@]34C5C[C@]6(OC(=O)c7ccccc7)[C@@H](OC)C[C@@](OC(C)=O)(C5[C@H]6OC(=O)c5ccc(OC)cc5)C([C@H](OC)C23)[C@@H]14 (some centres unmarked) [Compound 54] | − | 0 |
| CCN1C[C@]2(COC)CC[C@H](OC)[C@@]34C5C[C@]6(OC(=O)c7ccccc7)[C@@H](OC)C[C@@](OC)(C5[C@H]6OC(=O)c5ccccc5)C([C@H](OC)C23)[C@@H]14 (some centres unmarked) [Compound 55] | − | 11.7 ± 1.6 |
| CCO[C@]12C[C@H](OC)[C@@]3(OC(=O)c4ccc(C)cc4)CC(C1[C@H]3OC(=O)c1ccc(C)cc1)[C@]13C4[C@@H](OC)C2[C@H]1N(CC)C[C@]4(COC)CC[C@@H]3OC (some centres unmarked) [Compound 56] | − | 11.4 ± 2 |
| CCO[C@]12C[C@H](OC)[C@@]3(OC(=O)c4ccc(C)cc4)CC(C1[C@H]3OC(=O)c1ccc(OC)cc1)[C@]13C4[C@@H](OC)C2[C@H]1N(CC)C[C@]4(COC)CC[C@@H]3OC (some centres unmarked) [Compound 57] | − | 5.39 ± 2 |
| CCN1C[C@]2(COC)CC[C@H](OC)[C@@]34C5C[C@]6(OC(=O)c7ccc(C)cc7)[C@@H](OC)C[C@@](OC(C)=O)(C5[C@H]6OC(=O)c5ccc(OC)cc5)C([C@H](OC)C23)[C@@H]14 (some centres unmarked) [Compound 58] | − | 28.8 ± 1.8 |
| CCN1C[C@]2(COC)CC[C@H](OC)[C@@]34C5C[C@]6(OC(=O)c7ccc(F)cc7)[C@@H](OC)C[C@@](OC(C)=O)(C5[C@H]6OC(=O)c5ccc(OC)cc5)C([C@H](OC)C23)[C@@H]14 (some centres unmarked) [Compound 61] | − | 34 ± 1.9 |
| CCO[C@]12C[C@H](OC)[C@@]3(OC(=O)c4cccc(C)c4)CC(C1[C@H]3OC(=O)c1cccc(C)c1)[C@]13C4[C@@H](OC)C2[C@H]1N(CC)C[C@]4(COC)CC[C@@H]3OC (some centres unmarked) [Compound 62] | − | 15 ± 2.4 |
| CCO[C@]12C[C@H](OC)[C@@]3(OC(=O)c4ccc(CC)cc4)CC(C1[C@H]3OC(=O)c1ccc(CC)cc1)[C@]13C4[C@@H](OC)C2[C@H]1N(CC)C[C@]4(COC)CC[C@@H]3OC (some centres unmarked) [Compound 63] | − | 0 |
| CCO[C@]12C[C@H](OC)[C@@]3(OC(=O)c4ccc(Br)cc4)CC(C1[C@H]3OC(=O)c1ccc(Br)cc1)[C@]13C4[C@@H](OC)C2[C@H]1N(CC)C[C@]4(COC)CC[C@@H]3OC (some centres unmarked) [Compound 64] | − | 22.4 ± 1.4 |
| CCO[C@]12C[C@H](OC)[C@@]3(OC(=O)c4ccc(Cl)cc4)CC(C1[C@H]3OC(=O)c1ccc(Cl)cc1)[C@]13C4[C@@H](OC)C2[C@H]1N(CC)C[C@]4(COC)CC[C@@H]3OC (some centres unmarked) [Compound 65] | − | 32.3 ± 1.7 |
| CCO[C@]12C[C@H](OC)[C@@]3(OC(=O)c4ccccc4OC)CC(C1[C@H]3OC(=O)c1ccccc1OC)[C@]13C4[C@@H](OC)C2[C@H]1N(CC)C[C@]4(COC)CC[C@@H]3OC (some centres unmarked) [Compound 66] | − | 22.9 ± 2.4 |
